For four compounds, IC50, CYP3A4 partition ratio and Fmax rat hep results are on record in patent US9512130B2, “Substituted imidazopyridazines” (BAYER PHARMA AKTIENGESELLSCHAFT, priority 2013, dated 2016).

The target of data set [1] is T1, human CYP3A4 (Homo sapiens (Human), UniProt P08684). As to the kind of experiment: Determination of inhibitory potential on human CYP3A4. The format is in vitro ADME. As to conditions: human liver microsomes, midazolam as probe substrate. The method, then: Determination of Inhibitory Potential on Human CYP3A4
T1 sequence (P08684 whole entry): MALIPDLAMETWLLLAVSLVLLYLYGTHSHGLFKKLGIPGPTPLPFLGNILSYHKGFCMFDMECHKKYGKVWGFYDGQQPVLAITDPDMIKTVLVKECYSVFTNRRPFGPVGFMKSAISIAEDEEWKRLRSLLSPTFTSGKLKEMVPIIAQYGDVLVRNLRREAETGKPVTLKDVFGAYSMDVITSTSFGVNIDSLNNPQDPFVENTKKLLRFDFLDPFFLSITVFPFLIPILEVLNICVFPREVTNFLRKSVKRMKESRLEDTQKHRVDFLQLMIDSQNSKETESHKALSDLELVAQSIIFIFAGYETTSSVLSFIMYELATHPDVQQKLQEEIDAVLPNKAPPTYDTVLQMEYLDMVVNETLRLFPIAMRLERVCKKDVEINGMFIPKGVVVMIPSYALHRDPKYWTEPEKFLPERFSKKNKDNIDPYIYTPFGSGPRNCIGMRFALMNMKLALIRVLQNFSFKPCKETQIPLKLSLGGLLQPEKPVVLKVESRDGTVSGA
The potential of the test compound to act as a competitive inhibitor of CYP3A4 was evaluated in in vitro assays, using human liver microsomes and the reference substrate midazolam. The test compound was solved in acetonitrile. Human liver microsomal preparation (pool of HLM) was applied for the assay. A stock solution of the test compound was added to phosphate buffer containing EDTA, NADP, glucose 6-phosphate, and glucose 6-phosphate dehydrogenase. This mixture was sequentially diluted on a Genesis Workstation (Tecan, Crailsheim, FRG). After pre-warming, reaction was initiated by addition of a mixture of probe substrate (midazolam). […] The reference samples (substrate, but no inhibitor) were incubated in parallel in sextuple and contained the same amount of solvent as the test incubations. Reactions were stopped by addition of 100 μL acetonitrile containing the internal standard. Precipitated proteins were removed by centrifugation of the well plate, supernatants were analyzed by LC-MS/MS.
The CYP3A4-mediated metabolic activity in the presence of the test compounds was expressed as percentages of the corresponding reference value. A sigmoid-shaped curve was fitted to the data to calculate the enzyme inhibition parameter IC50 using a nonlinear least-squares regression analysis of the plot of percent control activity versus concentration of the test inhibitor.

The subject of data set [2] is spindle assembly checkpoint (Mps-1) in HeLa cells. As to the kind of experiment: cells. The format is cell-based. The conditions noted are these: Homo sapiens; HeLa cells arrested with nocodazole, 4 h with test compound, phospho-histone H3 (Ser10) readout; read-out: SAC.
Source text: Spindle Assembly Checkpoint Assay
The spindle assembly checkpoint assures the proper segregation of chromosomes during mitosis. Upon entry into mitosis, chromosomes begin to condensate which is accompanied by the phosphorylation of histone H3 on serine 10. Dephosphorylation of histone H3 on serine 10 begins in anaphase and ends at early telophase. Accordingly, phosphorylation of histone H3 on serine 10 can be utilized as a marker of cells in mitosis. Nocodazole is a microtubule destabilizing substance. Thus, nocodazole interferes with microtubule dynamics and mobilises the spindle assembly checkpoint. […] An inhibition of the spindle assembly checkpoint by Mps-1 inhibitors overrides the mitotic blockage in the presence of nocodazole, and the cells complete mitosis prematurely. This alteration is detected by the decrease of cells with phosphorylation of histone H3 on serine 10. This decline is used as a marker to determine the capability of compounds of the present invention to induce a mitotic breakthrough.
Cultivated cells of the human cervical tumour cell line HeLa (ATCC CCL-2) were plated at a density of 2500 cells/well in a 384-well microtiter plate in 20 μl Dulbeco's Medium (w/o phenol red, w/o sodium pyruvate, w 1000 mg/ml glucose, w pyridoxine) supplemented with 1% (v/v) glutamine, 1% (v/v) penicillin, 1% (v/v) streptomycin and 10% (v/v) fetal calf serum. After incubation overnight at 37° C., 10 μl/well nocodazole at a final concentration of 0.1 μg/ml were added to cells. After 24 h incubation, cells were arrested at G2/M phase of the cell cycle progression. […] Images were acquired with a Perkin Elmer OPERA™ High-Content Analysis reader. Images were analyzed with image analysis software MetaXpress™ from Molecular devices utilizing the Cell Cycle application module. […] The raw assay data were further analysed by four parameter logistic regression analysis to determine the IC50 value for each tested compound.
Data set [3] deals with T1, human CYP3A4. Put plainly: Determination of mechanism-based inhibition of human CYP3A4. The format is in vitro ADME. As to conditions: irreversible CYP3A4 inactivation; inactivator molecules metabolized per CYP3A4 molecule inactivated; testosterone substrate. The method, then: Determination of Mechanism-Based Inhibition of Human CYP3A4
The test compound was incubated at 37° C. in a concentration-NADPH-, and time-dependent setting. Therefore, the test compound was incubated at 4 different concentrations (e.g.: 1, 2, 5, 10 μM) in the presence of NADPH ([…]) and regenerating system in phosphate-buffered saline ([…], pH 7.4) The highest concentration of test compound was incubated without NADPH and therefore served as the NADPH-deficient control. In addition, acetonitrile as a vehicle control (negative control) and mibefradil as positive control for irreversible CYP3A4 inactivation were also included using identical assay conditions.
Each mixture was incubated with the enzyme (preincubation) for up to 50 minutes.
Afterwards, the reaction in the main incubation was stopped by the addition of acetonitrile (containing an internal standard), the protein was allowed to precipitate by placing the mixture into an ice bath. Subsequently, the mixture was centrifuged to pelletize the protein and the supernatants were analyzed by HPLC-MS for the isoform specific metabolite e.g. […] and the remaining amount of the test compound.
In parallel the turnover of the substrate was plotted against the preincubation time.

Another data set relates to HeLa cells. As to the kind of experiment: Proliferation Assay with HeLa cells. The format is cell-based. As to conditions: Homo sapiens, 96 h, 4 days incubation, crystal violet staining. How it is done:
After 24 hours, the cells of one plate (zero-point plate) were stained with crystal violet (see below), while the medium of the other plates was replaced by fresh culture medium (200 μl), to which the test substances were added in various concentrations (0 μM, as well as in the range of 0.01-30 μM; the final concentration of the solvent dimethyl sulfoxide was 0.5%). The cells were incubated for 4 days in the presence of test substances. […] After three washing cycles of the fixed cells with water, the plates were dried at room temperature. The cells were stained by adding 100 μl/measuring point of a 0.1% crystal violet solution (pH 3.0). After three washing cycles of the stained cells with water, the plates were dried at room temperature. The dye was dissolved by adding 100 μl/measuring point of a 10% acetic acid solution. The extinction was determined by photometry at a wavelength of 595 nm. The change of cell number, in percent, was calculated by normalization of the measured values to the extinction values of the zero-point plate (=0%) and the extinction of the untreated (0 μm) cells (=100%). The IC50 values were determined by means of a 4 parameter fit using the company's own software.

The nature of data set [4]: In vitro metabolic stability in rat hepatocytes. The format is in vitro ADME. The conditions noted are these: maximal oral bioavailability calculated from half-life in Han Wistar rat hepatocytes, 1 μM test compound. The method, then: Investigation of In Vitro Metabolic Stability in Rat Hepatocytes (Including Calculation of Hepatic In Vivo Blood Clearance (CL)) Hepatocytes from Han Wistar rats were isolated via a 2-step perfusion method. After perfusion, the liver was carefully removed from the rat: the liver capsule was opened and the hepatocytes were gently shaken out into a Petri dish with ice-cold WME. The resulting cell suspension was filtered through sterile gaze in 50 ml falcon tubes and centrifuged at 50×g for 3 min at room temperature. The cell pellet was resuspended in 30 ml WME and centrifuged through a Percoll® gradient for 2 times at 100×g. The hepatocytes were washed again with Williams' medium E (WME) and resuspended in medium containing 5% FCS. Cell viability was determined by trypan blue exclusion. For the metabolic stability assay liver cells were distributed in WME containing 5% FCS to glass vials at a density of 1.0×10^6 vital cells/mL. […] During incubation, the hepatocyte suspensions were continuously shaken and aliquots were taken at 2, 8, 16, 30, 45 and 90 min, to which equal volumes of cold methanol were immediately added. Samples were frozen at −20° C. over night, after subsequently centrifuged for 15 minutes at 3000 rpm and the supernatant was analyzed with an Agilent 1200 HPLC-system with LCMS/MS detection. The half-life of a test compound was determined from the concentration-time plot. From the half-life the intrinsic clearances were calculated. Together with the additional parameters liver blood flow, amount of liver cells in vivo and in vitro. The hepatic in vivo blood clearance (CL) and the maximal oral bioavailability (Fmax) was calculated. The following parameter values were used: Liver blood flow—4.2 L/h/kg rat; specific liver weight—32 g/kg rat body weight; liver cells in vivo—1.1×10^8 cells/g liver, liver cells in vitro—0.5×10^6/ml.

Some results are limits rather than exact numbers.

`COc1ccc(Oc2cc(NCC3COC3)c3ncc(-c4ccc(C(=O)NC5CC5)c(C)c4)n3n2)cc1F` [Example 1, N-cyclopropyl-4-{6-(3-fluoro-4-methoxyphenoxy)-8-[(oxetan-3-ylmethyl)amino]imidazo[1,2-b]pyridazin-3-yl}-2-methylbenzamide]: the IC50 at human CYP3A4 [1] is over 5000 nM; in data set [2], 0.97 nM; in the data set on HeLa cells it was 2.9 nM. Further, the CYP3A4 partition ratio at human CYP3A4 [3] came out at 105. The Fmax rat hep in data set [4] is 44%.
The compound `COc1ccc(Oc2cc(NCCC(F)(F)F)c3ncc(-c4ccc(C(=O)NC5CC5)c(C)c4)n3n2)c(F)c1F` [Example 2, N-cyclopropyl-4-{6-(2,3-difluoro-4-methoxyphenoxy)-8-[(3,3,3-trifluoropropyl)amino]imidazo[1,2-b]pyridazin-3-yl}-2-methylbenzamide] came in with an IC50 with HeLa cells of 7.8 nM. Moreover, the Fmax rat hep in data set [4] was 72%.
`COc1ccc(Oc2cc(NCC3CCOCC3)c3ncc(-c4ccc(C(=O)NC5CC5)c(C)c4)n3n2)c(F)c1F` [Example 3, N-cyclopropyl-4-{6-(2,3-difluoro-4-methoxyphenoxy)-8-[(tetrahydro-2H-pyran-4-ylmethyl)amino]imidazo[1,2-b]pyridazin-3-yl}-2-methylbenzamide]: the values for the IC50 (on human CYP3A4 [1]; in data set [2]; with HeLa cells) were over 10000 nM, 0.08 nM and 18.1 nM, respectively. The CYP3A4 partition ratio on human CYP3A4 [3] is 33. Further, the Fmax rat hep in data set [4] is given as 39%.
For `Cc1cc(-c2cnc3c(NCCC(F)(F)F)cc(Oc4cccc(F)c4)nn23)ccc1C(=O)NC1CC1` [Ref., N-cyclopropyl-4-{6-(3-fluorophenoxy)-8-[(3,3,3-trifluoropropyl)amino]imidazo[1,2-b]pyridazin-3-yl}-2-methylbenzamide, reference compound], in that order: over 10000 nM, 0.52 nM, 23 nM, 3 and 38%.
